Where two headings read alike, the source gives them in different places.
Assays:
HCC827 cells = assay: Growth inhibition, sulforhodamine B assay, HCC827; format: cell-based; details: for IC50: HCC827 (EGFR E746_A750 deletion), 72 h; for anticancer activity / effect on cell proliferation: HCC827, result in words
Source text: (§1) Two NSCLC cell lines carrying specific EGFR mutations (HCC827: EGFR sensitizing E746_A750 deletion; H1975: resistance-causing EGFR T790M secondary mutation) were purchased from American Type Culture Collection (ATCC; Manassas, VA, USA). A normal human lung epithelial cell line BEAS-2B was also obtained from ATCC to investigate the potential toxic effect of the tested drugs. HCC827, H1975, and BEAS-2B cells were maintained in RPMI1640 medium supplemented with 10% fetal bovine serum, 100-U/mL streptomycin sulfate, and 100-U/mL penicillin G sulfate, and incubated at 37°C in 5% CO2.
(§2) Growth inhibitory effects of various drug candidates on the cell lines were evaluated by the sulforhodamine B assay ([32]). Cells were seeded into 96-well tissue culture plates in 100 µL at a plating density of 3,000–5,000 cells/well, and allowed to incubate overnight. The cells were then treated with various drug candidates at a range of concentrations and allowed to incubate at 37°C in 5% CO2 for 72 h. Each drug concentration was tested in quadruplicate and controls were tested in replicates of eight.

H1975 cells [1] = assay: Growth inhibition, sulforhodamine B assay, H1975; format: cell-based; details: for anticancer activity / effect on cell proliferation: H1975, result in words
Source text: as §1, §2

BEAS-2B cells = assay: Cytotoxicity in normal lung epithelial cell line BEAS-2B; format: cell-based, human; details: for reduced cell viability: BEAS-2B
Source text: as §1, §2

EGFR wild type [2] = molecular target: EGFR wild type (Homo sapiens, UniProt P00533); assay: Cell-free kinase inhibition assay (ADP-Glo), EGFR wild type; format: biochemical; details: recombinant EGFR wild type, poly-EY substrate
Experimental: (§3) Inhibition of tyrosine kinase signaling by the drug candidates identified was examined in a cell-free system by assessing the phosphorylation of a poly-EY (4:1 Glu, Tyr) peptide substrate (for EGFR) with recombinant kinases EGFR^wt, EGFR^L858R, or EGFR^L858R+T790M as described previously ([34]). Inhibition of the recombinant kinases by the drug candidates was evaluated by using the ADP-Glo Kinase assay kit according to the manufacturer’s instruction (Promega, Madison, WI, USA). […] Also, 5 µL of ADP-Glo reagent was then added and incubation continued at room temperature for another 40 min. Afterward, 10 µL of kinase detection reagent was added and the mixture was allowed to incubate at room temperature for 30 min, before the measurement of luminescence by GloMax 20/20 Luminometer (Promega).

EGFR wild type [3] = assay: as above; format: biochemical; details: wild type IC50 versus L858R IC50
Experimental: as §3

EGFR L858R = EGFR L858R (Homo sapiens, UniProt P00533, L858R); assay: Cell-free kinase inhibition assay (ADP-Glo), EGFR L858R; format: biochemical; details: recombinant EGFR L858R, poly-EY substrate
Experimental: as §3

EGFR L858R/T790M = EGFR L858R/T790M (Homo sapiens, UniProt P00533, L858R/T790M); assay: Cell-free kinase inhibition assay (ADP-Glo), EGFR L858R/T790M; format: biochemical; details: for Fold difference from L858R value: L858R/T790M IC50 versus L858R IC50; for IC50: recombinant EGFR L858R/T790M, poly-EY substrate
Experimental: as §3

H1975 cells [4] = assay: Annexin V apoptosis assay; format: cell-based; details: for induction of apoptosis: H1975, 48 h, result in words; for proportion of apoptotic cells: 48 h
Experimental: Cells were grown on a 60-mm tissue culture dish at a density of about 5.0 × 10^5 cells/well. […] At the end of the treatment, both floating and attached cells were collected and washed twice with ice-cold phosphate buffer solution. The extent of apoptosis was determined by using the APC annexin-V apoptosis kit (BD Bioscience, San Jose, CA, USA) according to the manufacturer’s instructions. Cells positive for both annexin V and 7-AAD were considered apoptotic.

EGFR phosphorylation = assay: Western blot, EGFR autophosphorylation in HCC827 and H1975 cells; format: cell-based; details: H1975 compared with HCC827, 4 h, result in words
Experimental: (§4) Non-small cell lung cancer (HCC827, H1975) cell lines were treated with the tested drug candidates for the designated time (4 h). The cells were then harvested for Western blot analysis in lysis buffer (0.05-M HEPES pH 7.4, 0.15-M NaCl, 2-mM EDTA, 10% v/v glycerol, 1% v/v Triton X-100) supplemented with protease and phosphatase inhibitor cocktail (Thermo Scientific). Whole cell lysates were separated by SDS-PAGE and subjected to immunoblot analysis with the respective antibodies [total EGFR, phosphor-EGFR (Y845), phosphor-ERK1/2 (Thr177/Thr160), ERK1/2, phosphor-Akt, total Akt, and GAPDH (Santa Cruz Biotechnology, Santa Cruz, CA, USA)]. Primary antibody incubation was carried out at 4°C overnight in 5% bovine serum albumin/phosphate-buffered saline-Tween 20. Afterward, the membranes were incubated with HRP-conjugated donkey anti-mouse/anti-rabbit secondary antibody at room temperature for 1 h, and developed using the WesternBright Quantum chemiluminescence detection system (Advansta Corporation, Menlo Park, CA, USA). Anti-GAPDH antibody was used as the loading control (Santa Cruz Biotech, Santa Cruz, CA, USA). Digital chemiluminescence images were captured and quantified by using the FluorChem Q Imaging System (Alpha Innotech Corporation, Santa Clara, CA, USA).

[5] = system: phosphorylation of Akt and ERK; assay: Western blot, phosphorylation of Akt and ERK in HCC827 and H1975 cells; format: cell-based; details: H1975 compared with HCC827, 4 h, result in words
Experimental: as §4

PUMA = assay: Western blot, induction of PUMA in HCC827 and H1975 cells; format: cell-based; details: H1975 compared with HCC827, result in words
[6] = system: phosphorylation of EGFR, Akt, and ERK; assay: Western blot, drug combination, phosphorylation of EGFR, Akt and ERK in H1975 cells; format: cell-based; details: H1975, gefitinib 10 µM, indacaterol 10 µM, alone or concomitant, 4 h, result in words
[7] = system: L858R/T790M EGFR-bearing NSCLC cells; details: L858R/T790M EGFR-bearing NSCLC cells ref 15; cited from earlier work
[8] = H1975 (EGFR L858R/T790M), 72 h, read-out: IC50
[9] = highest concentration tested 100 µM

EGFR wild type (Homo sapiens, UniProt P00533), sequence (P00533 25-1210): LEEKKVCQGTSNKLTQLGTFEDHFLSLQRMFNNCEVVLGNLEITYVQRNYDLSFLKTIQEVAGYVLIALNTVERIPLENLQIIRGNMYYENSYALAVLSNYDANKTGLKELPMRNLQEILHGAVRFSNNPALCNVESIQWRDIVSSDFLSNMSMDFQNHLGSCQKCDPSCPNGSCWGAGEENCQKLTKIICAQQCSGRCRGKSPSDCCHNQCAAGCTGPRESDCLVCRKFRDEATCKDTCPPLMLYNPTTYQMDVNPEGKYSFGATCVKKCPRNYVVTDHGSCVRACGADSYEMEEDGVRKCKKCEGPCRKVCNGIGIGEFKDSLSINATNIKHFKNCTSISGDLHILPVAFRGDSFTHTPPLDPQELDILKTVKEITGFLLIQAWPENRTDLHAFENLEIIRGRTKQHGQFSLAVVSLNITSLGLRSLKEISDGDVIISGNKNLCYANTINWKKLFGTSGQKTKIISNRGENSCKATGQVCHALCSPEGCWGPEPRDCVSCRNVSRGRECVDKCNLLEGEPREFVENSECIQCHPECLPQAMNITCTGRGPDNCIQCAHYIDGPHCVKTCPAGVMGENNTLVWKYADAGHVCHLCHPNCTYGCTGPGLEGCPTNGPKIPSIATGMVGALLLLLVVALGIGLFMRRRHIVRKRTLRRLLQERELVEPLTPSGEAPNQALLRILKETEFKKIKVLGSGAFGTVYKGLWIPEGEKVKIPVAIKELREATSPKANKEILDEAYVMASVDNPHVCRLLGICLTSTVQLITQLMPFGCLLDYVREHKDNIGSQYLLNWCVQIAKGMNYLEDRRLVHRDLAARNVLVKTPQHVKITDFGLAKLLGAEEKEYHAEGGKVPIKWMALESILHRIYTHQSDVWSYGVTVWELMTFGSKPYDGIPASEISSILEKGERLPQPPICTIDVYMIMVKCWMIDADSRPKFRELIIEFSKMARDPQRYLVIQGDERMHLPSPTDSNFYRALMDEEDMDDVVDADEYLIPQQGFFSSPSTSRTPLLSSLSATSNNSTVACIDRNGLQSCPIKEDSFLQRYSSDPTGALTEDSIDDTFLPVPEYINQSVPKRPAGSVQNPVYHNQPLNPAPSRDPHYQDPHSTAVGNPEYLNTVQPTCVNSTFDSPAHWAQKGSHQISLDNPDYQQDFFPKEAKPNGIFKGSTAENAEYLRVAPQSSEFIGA
EGFR L858R/T790M, sequence (P00533 25-1210 T790M/L858R): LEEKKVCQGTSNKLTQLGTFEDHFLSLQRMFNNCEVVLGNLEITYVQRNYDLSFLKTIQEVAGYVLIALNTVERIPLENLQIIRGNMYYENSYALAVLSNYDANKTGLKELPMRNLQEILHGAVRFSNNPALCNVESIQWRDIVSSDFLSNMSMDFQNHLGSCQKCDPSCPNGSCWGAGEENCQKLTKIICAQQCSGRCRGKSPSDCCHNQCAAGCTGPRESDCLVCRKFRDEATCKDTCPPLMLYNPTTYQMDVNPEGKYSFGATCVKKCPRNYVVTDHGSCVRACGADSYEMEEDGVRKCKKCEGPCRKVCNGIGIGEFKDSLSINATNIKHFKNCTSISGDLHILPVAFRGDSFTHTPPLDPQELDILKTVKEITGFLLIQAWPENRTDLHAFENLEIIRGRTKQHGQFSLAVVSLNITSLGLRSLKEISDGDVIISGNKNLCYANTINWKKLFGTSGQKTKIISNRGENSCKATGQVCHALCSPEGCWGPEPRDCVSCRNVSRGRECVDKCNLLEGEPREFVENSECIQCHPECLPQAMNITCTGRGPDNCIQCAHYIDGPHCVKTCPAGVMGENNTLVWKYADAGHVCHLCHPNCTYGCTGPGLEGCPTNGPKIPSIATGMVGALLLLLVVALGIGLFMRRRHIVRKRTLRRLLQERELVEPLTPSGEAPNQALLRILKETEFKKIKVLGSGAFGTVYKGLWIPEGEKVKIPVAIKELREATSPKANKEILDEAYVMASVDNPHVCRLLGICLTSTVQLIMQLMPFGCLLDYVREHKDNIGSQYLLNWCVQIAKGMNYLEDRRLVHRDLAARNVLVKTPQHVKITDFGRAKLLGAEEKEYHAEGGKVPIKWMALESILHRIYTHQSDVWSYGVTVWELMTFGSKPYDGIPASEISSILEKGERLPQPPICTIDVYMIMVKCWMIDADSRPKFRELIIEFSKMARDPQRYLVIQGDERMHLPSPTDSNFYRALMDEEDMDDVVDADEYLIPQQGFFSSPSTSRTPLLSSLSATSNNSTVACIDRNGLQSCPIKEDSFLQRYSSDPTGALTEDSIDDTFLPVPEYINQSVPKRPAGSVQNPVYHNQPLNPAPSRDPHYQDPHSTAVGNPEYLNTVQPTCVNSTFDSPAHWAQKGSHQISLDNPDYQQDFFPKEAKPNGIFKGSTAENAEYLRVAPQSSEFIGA
EGFR L858R, sequence (P00533 25-1210 L858R): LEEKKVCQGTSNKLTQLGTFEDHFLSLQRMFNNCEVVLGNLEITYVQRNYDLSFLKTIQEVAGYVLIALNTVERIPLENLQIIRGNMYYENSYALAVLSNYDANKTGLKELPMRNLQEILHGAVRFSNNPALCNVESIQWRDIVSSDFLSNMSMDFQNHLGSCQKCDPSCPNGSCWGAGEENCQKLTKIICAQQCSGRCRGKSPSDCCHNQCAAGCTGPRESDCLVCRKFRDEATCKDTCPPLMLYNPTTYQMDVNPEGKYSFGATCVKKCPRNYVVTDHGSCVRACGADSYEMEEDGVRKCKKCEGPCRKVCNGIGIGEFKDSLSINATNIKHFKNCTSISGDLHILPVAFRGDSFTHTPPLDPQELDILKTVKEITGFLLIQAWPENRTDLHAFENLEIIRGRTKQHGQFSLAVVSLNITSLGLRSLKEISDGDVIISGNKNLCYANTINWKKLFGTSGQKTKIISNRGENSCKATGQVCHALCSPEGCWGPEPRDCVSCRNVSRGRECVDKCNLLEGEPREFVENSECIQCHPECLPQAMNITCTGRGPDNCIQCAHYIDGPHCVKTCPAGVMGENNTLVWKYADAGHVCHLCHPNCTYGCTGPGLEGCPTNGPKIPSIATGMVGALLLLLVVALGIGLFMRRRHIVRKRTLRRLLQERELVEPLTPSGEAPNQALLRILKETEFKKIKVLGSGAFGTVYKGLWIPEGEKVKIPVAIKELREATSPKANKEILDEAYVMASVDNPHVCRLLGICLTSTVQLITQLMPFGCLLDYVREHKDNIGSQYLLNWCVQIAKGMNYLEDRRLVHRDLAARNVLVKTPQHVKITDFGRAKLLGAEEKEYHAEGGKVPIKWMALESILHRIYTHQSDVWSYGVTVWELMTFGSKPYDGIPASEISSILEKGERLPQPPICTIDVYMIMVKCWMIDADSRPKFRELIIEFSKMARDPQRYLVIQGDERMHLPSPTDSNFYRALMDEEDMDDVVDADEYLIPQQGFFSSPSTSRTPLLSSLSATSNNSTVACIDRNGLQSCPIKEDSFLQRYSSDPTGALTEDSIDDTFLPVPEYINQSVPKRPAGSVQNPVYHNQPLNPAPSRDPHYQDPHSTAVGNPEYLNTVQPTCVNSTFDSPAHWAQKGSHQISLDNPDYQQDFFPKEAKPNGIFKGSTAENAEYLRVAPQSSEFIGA

SMILES | anticancer activity / effect on cell proliferation (HCC827 cells) | anticancer activity / effect on cell proliferation (H1975 cells [1]) | IC50 (EGFR wild type [2]) [nM] | Fold difference from L858R value (EGFR wild type [3]) | IC50 (EGFR L858R) [nM] | Fold difference from L858R value (EGFR L858R/T790M) | IC50 (EGFR L858R/T790M) [nM] | induction of apoptosis (H1975 cells [4]) | inhibition of EGFR phosphorylation (EGFR phosphorylation) | further results
Cc1ccc([C@@H]2O[C@H](CO)[C@@H](O)[C@H](O)[C@H]2O)cc1Cc1ccc(-c2ccc(F)cc2)s1 [Canagliflozin] | exhibit anticancer activity | exhibit anticancer activity | 795 ± 49.6 | 2.2 | 368 ± 29.6 | 0.7 | 261 ± 24.4 | induce apoptosis in a concentration-dependent manner | more potently in H1975 than in HCC827 cells | IC50 (HCC827 cells): 45.4 ± 2.9 µM; IC50 (H1975 cells [1]; [8]): 25.5 ± 3.1 µM; reduced cell viability (BEAS-2B cells; [9]): less than 20%; inhibition of phosphorylation of Akt and ERK [5]: more remarkably in H1975 than in HCC827; induction of PUMA (PUMA): more pronounced induction of PUMA in H1975 cells than in HCC827 cells
OCCN1CCN(CC/C=C2/c3ccccc3Sc3ccc(C(F)(F)F)cc32)CC1 [Cis-flupenthixol] | exhibit anticancer activity | exhibit anticancer activity | 186 ± 21.5 | 2.2 | 83 ± 5.2 | 1.1 | 94 ± 11.2 | induce apoptosis in a concentration-dependent manner | similarly in both H1975 and HCC827 cells | reduced cell viability (BEAS-2B cells; highest concentration tested 20 µM): less than 20%
C#Cc1cccc(Nc2ncnc3cc(OCCOC)c(OCCOC)cc23)c1 [Erlotinib] | – | – | – | – | – | – | – | – | – | IC50 (H1975 cells [1]; Homo sapiens, NCI-H1975, 72 h): 8.2 ± 2.1 µM; IC50 (BEAS-2B cells; Homo sapiens, BEAS-2B normal lung epithelial cells): ~20 µM
COc1cc2ncnc(Nc3ccc(F)c(Cl)c3)c2cc1OCCCN1CCOCC1 [Gefitinib] | – | – | – | – | – | – | – | – | – | proportion of apoptotic cells (H1975 cells [4]; H1975, gefitinib alone 4 µM): 6.9 ± 1.2%
CCc1cc2c(cc1CC)CC(NC[C@H](O)c1ccc(O)c3[nH]c(=O)ccc13)C2 [Indacaterol] | exhibit anticancer activity | exhibit anticancer activity | 792 ± 43.2 | 3.4 | 232 ± 36.5 | 0.4 | 103 ± 14 | induce apoptosis in a concentration-dependent manner | more potently in H1975 than in HCC827 cells | IC50 (HCC827 cells; Homo sapiens): 41.5 ± 3.9 µM; IC50 (H1975 cells [1]; [8]): ~14 µM; IC50 (H1975 cells [1]; Homo sapiens, NCI-H1975, 72 h, H1975 (EGFR L858R/T790M), 72 h, read-out: IC50): 14.3 ± 2.2 µM; reduced cell viability (BEAS-2B cells; [9]): less than 20%; proportion of apoptotic cells (H1975 cells [4]; H1975, indacaterol alone 5 µM): 9.7 ± 1.8%; inhibition of phosphorylation of Akt and ERK [5]: more remarkably in H1975 than in HCC827; induction of PUMA (PUMA): more pronounced induction of PUMA in H1975 cells than in HCC827 cells; inhibition of phosphorylation of EGFR, Akt, and ERK [6]: mildly
O=C(c1ccc(F)cc1)C1CCN(CCn2c(=O)[nH]c3ccccc3c2=O)CC1 [Ketanserin] | negative | negative | – | – | – | – | – | – | – | –
CCCc1nn(C)c2c(=O)[nH]c(-c3cc(S(=O)(=O)N4CCN(C)CC4)ccc3OCC)nc12 [Sildenafil] | negative | negative | – | – | – | – | – | – | – | –
C=CC(=O)Nc1cc(Nc2nccc(-c3cn(C)c4ccccc34)n2)c(OC)cc1N(C)CCN(C)C [osimertinib] | – | – | – | – | – | – | – | – | – | IC50 [7]: ~11 nM

Source: PMC5712561 (Frontiers in Oncology, 2017)
